The text below walks through data of ChEMBL document CHEMBL5260856, “Design, synthesis and biological evaluation of pyrazolo[3,4-b]pyridine derivatives as TRK inhibitors” (RSC Med Chem, 2023).

Data set [1] has as its target High affinity nerve growth factor receptor (Homo sapiens, UniProt P04629). The experiment in a line: Inhibition of TRKA (unknown origin) using TK as substrate in presence of ATP incubated for 30 mins by HTRF KinEASE assay. (TR-FRET usually uses a lanthanide donor and a delayed reading to cut background.)
Data set [2] addresses T1, Serine/threonine-protein kinase PLK4 (Homo sapiens, UniProt O00444).
T1 sequence (O00444 whole entry): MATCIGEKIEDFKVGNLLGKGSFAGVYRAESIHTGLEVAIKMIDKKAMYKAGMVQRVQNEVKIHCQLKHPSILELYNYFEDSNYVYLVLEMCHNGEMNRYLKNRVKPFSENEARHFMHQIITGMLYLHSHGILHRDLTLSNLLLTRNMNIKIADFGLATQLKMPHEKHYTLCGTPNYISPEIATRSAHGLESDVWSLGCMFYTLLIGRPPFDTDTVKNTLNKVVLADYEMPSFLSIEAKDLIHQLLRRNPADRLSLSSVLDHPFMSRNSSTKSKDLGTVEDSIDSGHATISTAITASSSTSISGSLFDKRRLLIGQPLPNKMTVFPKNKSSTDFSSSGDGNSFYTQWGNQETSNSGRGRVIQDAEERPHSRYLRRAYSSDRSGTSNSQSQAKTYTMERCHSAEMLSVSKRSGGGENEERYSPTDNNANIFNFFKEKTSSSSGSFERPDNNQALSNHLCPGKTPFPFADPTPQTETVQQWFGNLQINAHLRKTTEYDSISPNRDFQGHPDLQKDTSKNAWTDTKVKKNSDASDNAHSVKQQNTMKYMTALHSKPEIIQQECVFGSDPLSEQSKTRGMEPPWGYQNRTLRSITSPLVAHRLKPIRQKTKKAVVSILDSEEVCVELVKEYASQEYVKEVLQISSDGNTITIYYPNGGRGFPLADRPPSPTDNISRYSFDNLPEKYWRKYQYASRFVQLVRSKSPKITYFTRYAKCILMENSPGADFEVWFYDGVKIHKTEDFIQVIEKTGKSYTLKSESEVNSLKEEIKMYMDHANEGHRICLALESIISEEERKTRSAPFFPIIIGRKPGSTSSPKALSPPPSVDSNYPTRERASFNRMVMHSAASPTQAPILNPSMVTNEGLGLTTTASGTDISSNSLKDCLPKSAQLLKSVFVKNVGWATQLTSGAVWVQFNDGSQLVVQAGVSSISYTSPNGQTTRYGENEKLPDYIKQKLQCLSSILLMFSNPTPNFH
Kind of data set: Inhibition of PLK4 (unknown origin).

The target of data set [3] is Focal adhesion kinase 1 (Homo sapiens, UniProt Q05397). The experiment in a line: Inhibition of FAK (unknown origin).
Focal adhesion kinase 1, sequence (Q05397 whole entry): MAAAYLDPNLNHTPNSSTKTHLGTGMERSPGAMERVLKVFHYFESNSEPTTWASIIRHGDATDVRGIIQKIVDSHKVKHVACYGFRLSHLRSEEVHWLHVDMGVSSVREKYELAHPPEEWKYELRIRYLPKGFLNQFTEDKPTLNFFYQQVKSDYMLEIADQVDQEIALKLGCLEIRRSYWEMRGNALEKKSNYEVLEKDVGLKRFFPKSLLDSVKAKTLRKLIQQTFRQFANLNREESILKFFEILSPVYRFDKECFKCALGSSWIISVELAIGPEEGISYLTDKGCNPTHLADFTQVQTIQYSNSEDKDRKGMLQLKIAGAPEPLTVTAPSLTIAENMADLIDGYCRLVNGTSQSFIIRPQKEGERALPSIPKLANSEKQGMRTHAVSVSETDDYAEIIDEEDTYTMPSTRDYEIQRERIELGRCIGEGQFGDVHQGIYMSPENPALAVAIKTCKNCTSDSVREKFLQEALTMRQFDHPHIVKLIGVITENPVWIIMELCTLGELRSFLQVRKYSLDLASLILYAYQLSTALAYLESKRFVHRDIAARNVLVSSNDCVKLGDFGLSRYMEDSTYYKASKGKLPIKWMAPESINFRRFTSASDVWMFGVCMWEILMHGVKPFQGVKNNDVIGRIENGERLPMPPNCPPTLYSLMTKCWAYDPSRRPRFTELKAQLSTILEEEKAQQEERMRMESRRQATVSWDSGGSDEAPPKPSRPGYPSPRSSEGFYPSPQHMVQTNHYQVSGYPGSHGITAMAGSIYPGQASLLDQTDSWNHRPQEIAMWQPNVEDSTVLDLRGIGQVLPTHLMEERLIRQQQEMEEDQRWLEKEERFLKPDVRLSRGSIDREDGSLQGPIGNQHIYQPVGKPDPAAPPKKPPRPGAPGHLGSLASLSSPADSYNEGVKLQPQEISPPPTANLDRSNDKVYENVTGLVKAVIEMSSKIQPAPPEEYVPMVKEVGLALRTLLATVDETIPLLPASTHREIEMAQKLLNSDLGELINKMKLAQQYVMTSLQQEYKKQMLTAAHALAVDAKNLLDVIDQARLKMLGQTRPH
For data set [4], the target named is Serine/threonine-protein kinase PAK 4 (Homo sapiens, UniProt O96013). Kind of data set: Inhibition of PAK4 (unknown origin).
Serine/threonine-protein kinase PAK 4, sequence (O96013 whole entry): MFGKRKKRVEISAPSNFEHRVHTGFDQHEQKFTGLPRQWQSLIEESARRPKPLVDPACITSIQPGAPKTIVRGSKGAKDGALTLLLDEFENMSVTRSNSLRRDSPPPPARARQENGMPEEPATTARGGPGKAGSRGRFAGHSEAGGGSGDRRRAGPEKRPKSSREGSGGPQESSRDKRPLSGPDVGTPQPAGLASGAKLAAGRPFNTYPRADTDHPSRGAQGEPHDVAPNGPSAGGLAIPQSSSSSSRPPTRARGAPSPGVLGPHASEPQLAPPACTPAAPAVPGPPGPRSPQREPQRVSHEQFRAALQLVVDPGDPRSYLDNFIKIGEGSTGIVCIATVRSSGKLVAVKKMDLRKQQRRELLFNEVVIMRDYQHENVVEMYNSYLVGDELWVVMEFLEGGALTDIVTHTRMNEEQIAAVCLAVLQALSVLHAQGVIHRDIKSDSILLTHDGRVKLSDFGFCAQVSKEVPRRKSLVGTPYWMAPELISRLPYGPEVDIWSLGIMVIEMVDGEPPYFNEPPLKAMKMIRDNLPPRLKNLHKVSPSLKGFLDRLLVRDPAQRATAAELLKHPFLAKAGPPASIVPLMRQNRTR
In data set [5] the target is CYP2D6 (Homo sapiens, UniProt P10635). The experiment in a line: Inhibition of CYP2D6 in human liver microsomes using dextromethorphan as substrate at 10 uM preincubated for 10 mins followed by NADPH addition and measured after 15 mins by LC-MS/MS analysis. To be noted: probe dextromethorphan, time 25 min. It is filed as ADME, Microsome.
CYP2D6, sequence (P10635 whole entry): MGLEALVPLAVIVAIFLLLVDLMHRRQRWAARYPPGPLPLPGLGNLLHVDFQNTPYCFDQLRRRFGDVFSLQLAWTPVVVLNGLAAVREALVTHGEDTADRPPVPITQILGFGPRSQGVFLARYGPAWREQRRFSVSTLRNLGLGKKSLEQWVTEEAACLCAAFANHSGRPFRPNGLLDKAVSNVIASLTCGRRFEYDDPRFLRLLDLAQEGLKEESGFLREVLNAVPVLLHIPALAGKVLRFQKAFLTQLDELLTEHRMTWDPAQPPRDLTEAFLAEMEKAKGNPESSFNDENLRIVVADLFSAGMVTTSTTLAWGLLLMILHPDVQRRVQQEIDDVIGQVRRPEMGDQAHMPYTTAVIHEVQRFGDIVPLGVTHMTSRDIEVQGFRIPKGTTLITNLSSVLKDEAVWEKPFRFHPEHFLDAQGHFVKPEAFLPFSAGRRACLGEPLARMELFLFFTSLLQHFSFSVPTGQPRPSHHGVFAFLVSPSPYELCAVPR
In data set [6] the target is CYP3A4 (Homo sapiens, UniProt P08684). The experiment in a line: Inhibition of CYP3A4 in human liver microsomes using midazolam as substrate at 10 uM preincubated for 10 mins followed by NADPH addition and measured after 15 mins by LC-MS/MS analysis. It is filed as ADME, Microsome. To be noted: probe midazolam, time 25 min. (In general: Liver microsomes are vesicles of endoplasmic reticulum, rich in cytochrome P450 enzymes.)
CYP3A4, sequence (P08684 whole entry): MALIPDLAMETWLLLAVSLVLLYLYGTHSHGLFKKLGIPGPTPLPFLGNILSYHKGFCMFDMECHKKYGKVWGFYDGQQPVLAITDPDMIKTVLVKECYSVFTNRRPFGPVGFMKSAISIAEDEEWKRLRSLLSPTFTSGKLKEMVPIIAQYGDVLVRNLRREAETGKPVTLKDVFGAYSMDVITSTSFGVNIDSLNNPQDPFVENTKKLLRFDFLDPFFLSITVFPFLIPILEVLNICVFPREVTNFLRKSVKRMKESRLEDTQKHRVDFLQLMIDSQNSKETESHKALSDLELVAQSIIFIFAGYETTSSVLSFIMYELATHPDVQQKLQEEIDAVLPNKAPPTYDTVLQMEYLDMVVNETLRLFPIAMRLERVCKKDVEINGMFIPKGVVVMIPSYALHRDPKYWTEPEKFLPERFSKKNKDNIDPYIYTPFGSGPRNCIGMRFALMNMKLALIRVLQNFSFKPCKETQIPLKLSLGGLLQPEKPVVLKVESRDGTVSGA

The nature of data set [7]: Stability in human plasma assessed as parent compound remaining at 100 uM and measured after 10 mins by LC-MS/MS analysis. It is filed as ADME, cell-free. The settings on record: read-out: Stability.
Data set [8] is described as follows: Stability in human plasma assessed as parent compound remaining at 100 uM and measured after 0 mins by LC-MS/MS analysis. It is filed as ADME, cell-free. The settings on record: read-out: Stability.
Data set [9] in a line: Stability in human plasma assessed as parent compound remaining at 100 uM and measured after 120 mins by LC-MS/MS analysis. To be noted: read-out: Stability. It is filed as ADME, cell-free.
Data set [10] is described as follows: Stability in human plasma assessed as parent compound remaining at 100 uM and measured after 30 mins by LC-MS/MS analysis. It is filed as ADME, cell-free. The settings on record: read-out: Stability.
The nature of data set [11]: Stability in human plasma assessed as parent compound remaining at 100 uM and measured after 60 mins by LC-MS/MS analysis. It is filed as ADME, cell-free. The settings on record: read-out: Stability.
The target of data set [12] is CYP2C9 (Homo sapiens, UniProt P11712). Kind of data set: Inhibition of CYP2C9 in human liver microsomes using diclofenac as substrate at 10 uM preincubated for 10 mins followed by NADPH addition and measured after 15 mins by LC-MS/MS analysis. It is filed as ADME, Microsome. The settings on record: probe diclofenac, time 25 min.
CYP2C9, sequence (P11712 whole entry): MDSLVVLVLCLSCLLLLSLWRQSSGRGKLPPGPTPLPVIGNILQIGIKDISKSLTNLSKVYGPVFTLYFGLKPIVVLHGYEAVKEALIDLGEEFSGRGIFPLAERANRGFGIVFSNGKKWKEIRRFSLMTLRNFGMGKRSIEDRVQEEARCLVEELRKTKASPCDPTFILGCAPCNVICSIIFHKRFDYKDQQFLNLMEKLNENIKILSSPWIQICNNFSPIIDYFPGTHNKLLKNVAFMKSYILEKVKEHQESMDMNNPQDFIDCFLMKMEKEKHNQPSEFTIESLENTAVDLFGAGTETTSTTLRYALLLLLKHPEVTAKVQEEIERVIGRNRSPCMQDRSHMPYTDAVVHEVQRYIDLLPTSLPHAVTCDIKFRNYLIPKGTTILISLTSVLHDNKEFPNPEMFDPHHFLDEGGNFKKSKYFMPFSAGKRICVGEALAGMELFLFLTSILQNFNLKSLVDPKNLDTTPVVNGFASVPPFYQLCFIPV
Data set [13] can be described thus: Stability in human plasma assessed as half life at 100 uM and measured after 120 mins by LC-MS/MS analysis. It is filed as ADME, cell-free.
The target in data set [14] is T2, CYP1A2 (Homo sapiens, UniProt P05177).
T2 sequence (P05177 whole entry): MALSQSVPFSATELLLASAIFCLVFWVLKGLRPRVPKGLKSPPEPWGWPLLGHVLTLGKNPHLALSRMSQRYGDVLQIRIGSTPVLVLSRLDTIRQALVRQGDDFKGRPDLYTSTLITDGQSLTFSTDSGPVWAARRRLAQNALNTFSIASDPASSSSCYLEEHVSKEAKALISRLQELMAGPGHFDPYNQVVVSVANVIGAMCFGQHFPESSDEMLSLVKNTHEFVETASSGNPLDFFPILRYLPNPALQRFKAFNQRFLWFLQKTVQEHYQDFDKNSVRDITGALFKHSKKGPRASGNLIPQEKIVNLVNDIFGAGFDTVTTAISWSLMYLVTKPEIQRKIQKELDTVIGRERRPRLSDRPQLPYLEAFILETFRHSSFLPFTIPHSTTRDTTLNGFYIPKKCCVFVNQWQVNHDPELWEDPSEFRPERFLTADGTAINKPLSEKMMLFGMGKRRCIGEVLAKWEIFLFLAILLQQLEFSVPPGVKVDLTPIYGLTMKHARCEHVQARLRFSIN
Kind of data set: Inhibition of CYP1A2 in human liver microsomes using phenacetin as substrate at 10 uM preincubated for 10 mins followed by NADPH addition and measured after 15 mins by LC-MS/MS analysis. It is filed as ADME, Microsome. The settings on record: probe phenacetin, time 25 min.

In data set [15] the target is CYP2C19 (Homo sapiens, UniProt P33261). The experiment in a line: Inhibition of CYP2C19 in human liver microsomes using S-mephenytoin as substrate at 10 uM preincubated for 10 mins followed by NADPH addition and measured after 15 mins by LC-MS/MS analysis. It is filed as ADME, Microsome. To be noted: probe S-mephenytoin, time 25 min.
CYP2C19, sequence (P33261 whole entry): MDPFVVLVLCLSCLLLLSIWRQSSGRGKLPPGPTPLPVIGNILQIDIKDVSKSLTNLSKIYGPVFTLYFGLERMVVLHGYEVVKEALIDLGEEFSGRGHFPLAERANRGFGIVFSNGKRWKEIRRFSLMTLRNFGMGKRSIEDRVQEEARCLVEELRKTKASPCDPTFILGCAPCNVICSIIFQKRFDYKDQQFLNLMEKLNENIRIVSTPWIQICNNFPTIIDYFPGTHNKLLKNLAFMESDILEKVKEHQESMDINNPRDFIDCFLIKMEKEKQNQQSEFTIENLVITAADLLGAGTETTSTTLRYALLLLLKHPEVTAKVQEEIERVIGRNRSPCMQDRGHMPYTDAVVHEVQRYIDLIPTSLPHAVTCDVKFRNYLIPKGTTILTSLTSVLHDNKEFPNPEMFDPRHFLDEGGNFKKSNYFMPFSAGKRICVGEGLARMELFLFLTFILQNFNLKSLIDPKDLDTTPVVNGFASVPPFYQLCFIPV
A short description of data set [16]: Inhibition of tyrosine kinase (unknown origin). Details: species or system Homo sapiens.
Data set [17] concerns KM12. Kind of data set: Antiproliferative activity against human KM12 cells assessed as cell growth inhibition incubated for 72 hrs by CCK-8 assay. It is filed as functional, cell-based. The settings on record: KM12, 72 h. (In general: Tetrazolium dyes change colour on reduction, which living cells bring about.)
For data set [18], the system named is MCF7. Kind of data set: Antiproliferative activity against human MCF7 cells assessed as cell growth inhibition incubated for 72 hrs by CCK-8 assay. The settings on record: MCF7, 72 h. It is filed as functional, cell-based.

High affinity nerve growth factor receptor, sequence (P04629 whole entry): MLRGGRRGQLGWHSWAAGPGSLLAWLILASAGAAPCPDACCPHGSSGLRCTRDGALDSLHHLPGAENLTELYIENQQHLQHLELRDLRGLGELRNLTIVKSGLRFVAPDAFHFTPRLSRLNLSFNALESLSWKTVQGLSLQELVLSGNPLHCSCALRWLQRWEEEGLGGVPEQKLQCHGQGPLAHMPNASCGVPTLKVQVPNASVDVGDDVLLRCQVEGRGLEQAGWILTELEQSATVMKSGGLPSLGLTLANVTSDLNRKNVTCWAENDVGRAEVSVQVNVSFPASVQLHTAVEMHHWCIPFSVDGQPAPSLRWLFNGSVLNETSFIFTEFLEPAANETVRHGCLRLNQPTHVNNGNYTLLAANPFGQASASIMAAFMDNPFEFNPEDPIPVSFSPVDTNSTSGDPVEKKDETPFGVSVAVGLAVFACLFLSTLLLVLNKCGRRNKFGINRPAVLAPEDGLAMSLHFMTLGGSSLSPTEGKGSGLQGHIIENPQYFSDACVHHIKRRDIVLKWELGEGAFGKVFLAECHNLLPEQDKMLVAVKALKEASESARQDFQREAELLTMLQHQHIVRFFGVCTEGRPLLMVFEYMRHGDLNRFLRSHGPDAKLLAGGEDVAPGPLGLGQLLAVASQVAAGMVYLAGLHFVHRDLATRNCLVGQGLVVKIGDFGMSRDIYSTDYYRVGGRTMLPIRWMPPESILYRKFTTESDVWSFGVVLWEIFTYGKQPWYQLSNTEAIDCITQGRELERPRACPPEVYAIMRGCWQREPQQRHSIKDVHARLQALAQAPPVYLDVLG

The term IC50 denotes the midpoint of a concentration-inhibition curve. With `CN1CCN(C(=O)c2ccc(Nc3n[nH]c4ncc(Cc5cc(F)ccc5F)cc34)cc2)CC1`, in [1], the IC50 amounted to 0.389 µM.
On the same count and under the same terms, under `O=C(c1cccc(Nc2n[nH]c3ncc(Cc4ccc(F)cc4)cc23)c1)N1CCOCC1` stands 2.78 µM; under `O=C(c1cccc(Nc2n[nH]c3ncc(Cc4cccc(C(F)(F)F)c4)cc23)c1)N1CCOCC1`, 16.7 µM.
Turning to `O=C(c1cccc(Nc2n[nH]c3ncc(Cc4c(F)cccc4F)cc23)c1)N1CCOCC1`, the IC50 in data set [1] amounted to 0.838 µM.
With `O=C(c1ccc(Nc2n[nH]c3ncc(Cc4cc(F)ccc4F)cc23)cc1)N1CCNCC1`, in [1], the half-maximal inhibitory concentration (IC50) was determined as 0.409 µM.
As to `O=C(c1cccc(-c2n[nH]c3ncc(Cc4cc(F)ccc4F)cc23)c1)N1CCC[C@H](O)C1`, the IC50 in [2] is 1.32 µM; in data set [3], above 100 µM; in data set [4], above 100 µM.
In the case of `O=C(c1cccc(-c2n[nH]c3ncc(Cc4cc(F)ccc4F)cc23)c1)N1CCC[C@@H](O)C1`, the values for the IC50 in data set [2], in data set [3] and in data set [4] were 0.69 µM, above 100 µM and above 100 µM, respectively.
In the case of `O=C(c1cccc(Nc2n[nH]c3ncc(Cc4ccc(F)c(F)c4)cc23)c1)N1CCOCC1`, the IC50 in [1] is above 100 µM.
In the case of `NC1CCN(C(=O)c2cccc(Nc3n[nH]c4ncc(Cc5cc(F)ccc5F)cc34)c2)CC1`, in data set [1], the IC50 is 0.437 µM.
Same read-out and setting: then `O=C(c1cccc(Nc2n[nH]c3ncc(Cc4cc(F)cc(F)c4)cc23)c1)N1CCOCC1`, with 0.7 µM; and `O=C(c1cccc(Nc2n[nH]c3ncc(Cc4cc(F)ccc4F)cc23)c1)N1CCCC(O)C1` (configuration not stated), with 0.205 µM.
`O=C(c1ccc(Nc2n[nH]c3ncc(Cc4cc(F)ccc4F)cc23)cc1)N1CCCC(O)C1` (configuration not stated): the IC50 in [1] turned out to be 0.156 µM.
Turning to `O=C(c1ccc(Nc2n[nH]c3ncc(Cc4cc(F)ccc4F)cc23)cc1)N1CCOCC1`, the IC50 in [1] was determined as 0.98 µM.
For orientation: inhibition means the percentage by which the read-out fell short of the control. The low end stands for a weak effect, the high end for a strong effect. What is called half-life is the time needed for the level to fall by half in the phase considered. `O=C(c1cccc(-c2n[nH]c3ncc(Cc4cc(F)ccc4F)cc23)c1)N1CCCC(O)C1` (configuration not stated): the inhibition at 0.25 h, 10 µM worked out at 25.8% in data set [5]; 0% in data set [6]; 66.6% in data set [12]; 16.6% in data set [14]; 48.6% in data set [15]. In addition, the remaining at 10 min, 100 µM in [7] came to 104%. Further, the half-inhibitory concentration (IC50) in data set [2] is 1.65 µM; in [3], above 100 µM; in data set [4], above 100 µM. The remaining at 0 h, 100 µM in [8] was determined as 100%. Further, in data set [9], the remaining at 2 h, 100 µM is 89.1%. The remaining at 0.5 h, 100 µM in data set [10] is 88%. The remaining at 1 h, 100 µM in data set [11] was found to be 93.6%. In [13], the half-life at 100 µM is above 4.82 h.
In the case of `O=C(c1cccc(Nc2n[nH]c3ncc(Cc4cccc(F)c4F)cc23)c1)N1CCOCC1`, in [1], the IC50 is 1.97 µM.
With `O=C(c1cccc(-c2n[nH]c3ncc(Cc4cc(F)ccc4F)cc23)c1)N1CCC(O)CC1`, the IC50 in [1] turned out to be 0.254 µM.
As for `O=C(c1cccc(Nc2n[nH]c3ncc(Cc4cc(F)c(F)c(F)c4)cc23)c1)N1CCOCC1`, the IC50 in data set [1] stood at 0.66 µM.
As to `O=C(Nc1cnn2ccc(N3CCC[C@@H]3c3cc(F)ccc3F)nc12)N1CC[C@H](O)C1` [LAROTRECTINIB], the figures for the half-inhibitory concentration (IC50) in [16], in data set [17] and in data set [18] were below 0.02 µM, 0.012 µM and above 40 µM, respectively.
